Laboratory results taken from ChEMBL document CHEMBL3745599, “The anti-tumor activity and mechanism of alkaloids from Aconitum szechenyianum Gay” (Bioorg Med Chem Lett, 2016).
Activity calls are given as the source filed them. No cut-off for these calls is given here.

Assays:
[1] = system: HepG2; assay: Antiproliferative activity against human HepG2 cells assessed as cell viability at 100 to 1600 ug/ml after 44 hrs by MTT assay; type: functional, cell-based
[2] = system: A549; assay: Antiproliferative activity against human A549 cells assessed as cell viability at 100 to 1600 ug/ml after 44 hrs by MTT assay; type: functional, cell-based
[3] = system: HeLa; assay: Antiproliferative activity against human HeLa cells assessed as cell viability at 100 to 1600 ug/ml after 44 hrs by MTT assay; type: functional, cell-based
[4] = Cytotoxicity against HEK293A cells assessed as cell viability at 100 to 800 ug/ml after 44 hrs by MTT assay; type: cell-based; settings: human, hek293-a
[5] = Cytotoxicity against HEK293A cells assessed as cell viability at 1600 ug/ml after 44 hrs by MTT assay; type: cell-based; settings: human, hek293-a
[6] = system: A549; assay: Induction of apoptosis in human A549 cells assessed as change from fusiform shape to round shape cell at 100 to 800 ug/ml after 24 hrs by inverted phase contrast microscopic analysis; type: functional, cell-based
[7] = system: A549; assay: Induction of apoptosis in human A549 cells assessed as cell shrinkage at 100 to 800 ug/ml after 24 hrs by inverted phase contrast microscopic analysis; type: functional, cell-based
[8] = system: A549; assay: Induction of apoptosis in human A549 cells assessed as appearance of loosely arranged cells at 100 to 800 ug/ml after 24 hrs by inverted phase contrast microscopic analysis; type: functional, cell-based
[9] = system: A549; assay: Induction of apoptosis in human A549 cells assessed as change in cytoplasmic vacuole at 100 to 800 ug/ml after 24 hrs by inverted phase contrast microscopic analysis; type: functional, cell-based
[10] = system: A549; assay: Induction of apoptosis in human A549 cells assessed as condensed chromatin at 100 to 800 ug/ml after 24 hrs by Hoechst 33258 staining-based fluorescence microscopic analysis; type: functional, cell-based
[11] = system: A549; assay: Induction of apoptosis in human A549 cells assessed as nuclear fragmentation at 100 to 800 ug/ml after 24 hrs by Hoechst 33258 staining-based fluorescence microscopic analysis; type: functional, cell-based
[12] = system: A549; assay: Induction of apoptosis in human A549 cells after 24 hrs by inverted phase contrast microscopic analysis; type: functional, cell-based
[13] = system: A549; assay: Upregulation of phosphorylated p38 expression in human A549 cells by Western blot analysis; type: functional, cell-based
[14] = system: A549; assay: Upregulation of p38 expression in human A549 cells by Western blot analysis; type: functional, cell-based
[15] = biological target: T1, MAP kinase p38 (Homo sapiens) (UniProt O15264+Q15759+Q16539+P53778); assay: Activation of p38 in human A549 cells assessed as upregulation of DR5 expression by Western blot analysis; type: cell-based
[16] = biological target: T1, MAP kinase p38 (Homo sapiens); assay: Activation of p38 in human A549 cells assessed as upregulation of TNF-R1 expression by Western blot analysis; type: cell-based
[17] = system: A549; assay: Induction of apoptosis in human A549 cells assessed as loss in mitochondrial membrane potential after 24 hrs by JC-1 dye-based fluorescence microscopic analysis; type: functional, cell-based
[18] = biological target: T1, MAP kinase p38 (Homo sapiens); assay: Activation of p38 in human A549 cells assessed as upregulation of Bax expression by Western blot analysis; type: cell-based
[19] = biological target: T1, MAP kinase p38 (Homo sapiens); assay: Activation of p38 in human A549 cells assessed as downregulation of Bcl2 expression at 100 to 800 ug/ml by Western blot analysis; type: cell-based
[20] = biological target: T1, MAP kinase p38 (Homo sapiens); assay: Activation of p38 in human A549 cells assessed as increase in Bax to Bcl2 ratio by Western blot analysis; type: cell-based
[21] = biological target: T1, MAP kinase p38 (Homo sapiens); assay: Activation of p38 in human A549 cells assessed as downregulation of cytochrome c expression in mitochondria by Western blot analysis
[22] = biological target: T1, MAP kinase p38 (Homo sapiens); assay: Activation of p38 in human A549 cells assessed as upregulation of cytochrome c expression in cytosol by Western blot analysis; type: cell-based
[23] = biological target: T1, MAP kinase p38 (Homo sapiens); assay: Activation of p38 in human A549 cells assessed as downregulation of procaspase-8 level by Western blot analysis; type: cell-based
[24] = biological target: T1, MAP kinase p38 (Homo sapiens); assay: Activation of p38 in human A549 cells assessed as downregulation of procaspase-3 level by Western blot analysis; type: cell-based
[25] = biological target: T1, MAP kinase p38 (Homo sapiens); assay: Activation of p38 in human A549 cells assessed as upregulation of cleaved caspase-9 level by Western blot analysis; type: cell-based

Compound	Activity [1]	Activity [2]	Activity [3]	Activity [4]	Activity [5]	Activity [6]	Activity [7]	Activity [8]	Activity [9]	Activity [10]	Activity [11]	Activity [12]	Activity [13]	Activity [14]	Activity [15]	Activity [16]	Activity [17]	Activity [18]	Activity [19]	Activity [20]	other results
CCN1C[C@]2(COC)[C@H](O)C[C@@H](OC)[C@@]34[C@@H]5C[C@@]6(O)[C@H](OC(=O)c7ccccc7)[C@@H]5[C@@](OC(C)=O)([C@@H]([C@H](OC)[C@H]23)[C@H]14)[C@@H](O)[C@@H]6OC	Active	Active	Active	Non-toxic	Toxic	Active	Active	Active	Active	Active	Active	Dose-dependent effect	Dose-dependent effect	Dose-dependent effect	Dose-dependent effect	Dose-dependent effect	Dose-dependent effect	Dose-dependent effect	Active	Dose-dependent effect	Activity [21]: Dose-dependent effect; Activity [22]: Dose-dependent effect; Activity [23]: Dose-dependent effect; Activity [24]: Dose-dependent effect; Activity [25]: Active
CCN1C[C@@]2(COC)[C@H]3[C@@H](OC)[C@H]4C1[C@]3([C@@H](OC)C[C@H]2OC(C)=O)[C@@H]1C[C@@]2(O)[C@H](OC(=O)c3ccccc3)[C@@H]1[C@]4(OC(C)=O)[C@@H](O)[C@@H]2OC	Active	Active	Active	Non-toxic	Toxic	Active	Active	Active	Active	Active	Active	Dose-dependent effect	Dose-dependent effect	Dose-dependent effect	Dose-dependent effect	Dose-dependent effect	Dose-dependent effect	Dose-dependent effect	Active	Dose-dependent effect	Activity [21]: Dose-dependent effect; Activity [22]: Dose-dependent effect; Activity [23]: Dose-dependent effect; Activity [24]: Dose-dependent effect; Activity [25]: Active
CCN1C[C@]2(COC)CC[C@H](OC)[C@]34C1[C@H]([C@H](OC)[C@H]23)[C@]1(OC(C)=O)[C@H]2[C@@H](OC(=O)c3ccccc3)[C@](O)(C[C@H]24)[C@@H](OC)[C@@H]1O	Active	Active	Active	Non-toxic	Toxic	Active	Active	Active	Active	Active	Active	Dose-dependent effect	Dose-dependent effect	Dose-dependent effect	Dose-dependent effect	Dose-dependent effect	Dose-dependent effect	Dose-dependent effect	Active	Dose-dependent effect	Activity [21]: Dose-dependent effect; Activity [22]: Dose-dependent effect; Activity [23]: Dose-dependent effect; Activity [24]: Dose-dependent effect; Activity [25]: Active
C=C1[C@H]2C[C@@]3([C@@H]1O)[C@@H](CC2=O)[C@@]12C4[C@@H]3C[C@@H]1[C@@](C)(CC[C@@H]2O)CN4CC	Active	Active	Active	Non-toxic	Toxic	Active	Active	Active	Active	Active	Active	Dose-dependent effect	Dose-dependent effect	Dose-dependent effect	Dose-dependent effect	Dose-dependent effect	Dose-dependent effect	Dose-dependent effect	Active	Dose-dependent effect	Activity [21]: Dose-dependent effect; Activity [22]: Dose-dependent effect; Activity [23]: Dose-dependent effect; Activity [24]: Dose-dependent effect; Activity [25]: Active
